Source: patent US10485235B2, “Aryloxypyrimidinyl ethers as herbicides” (FMC Corporation, priority 2015, dated 2019)

Key:
Assay type in all cases: in vivo
rice (Oryza sativa) = test: Test B flooded paddy test, rice; details: Oryza sativa; 250 g ai/ha, Flood; visual rating after 13 to 15 days; scale 0 to 100, 0 is no effect, 100 is complete control; read-out: Plant response rating, Rice
Method in brief: (§1)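 Plants grown to 2-leaf stage, pots flooded to 3 cm above soil and compound applied directly to paddy water, depth maintained throughout. After 13-15 days in greenhouse, visual rating against untreated controls on 0-100 scale (0 no effect, 100 complete control).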

[1] = tested on: barnyardgrass (Echinochloa crus-galli); test: Test A postemergence, barnyardgrass; details: Echinochloa crus-galli, post-emergence, 240 h, postemergence, 0 to 100 scale, 0 is no effect, 100 is complete control, approximately 10 days, read-out: Plant response rating, Barnyardgrass; for pest or weed control at 125 g/ha: 125 g ai/ha
Method in brief: (§2)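 Pre- and postemergence greenhouse screen in loam–sand soil. Test chemicals were delivered in a non-phytotoxic solvent with surfactant, preemergence as a directed spray onto seeded soil and postemergence onto 2–10 cm seedlings. Injury was judged by eye after ~10 days on a 0–100 scale.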

corn (Zea mays) = test: Test A postemergence, corn; details: Zea mays, post-emergence, 240 h, postemergence, 0 to 100 scale, 0 is no effect, 100 is complete control, approximately 10 days; for Corn plant response rating (crop injury, 0 = no effect, 100 = complete kill) at 125 g/ha: 125 g ai/ha
Method in brief: as §2

kochia (Kochia scoparia) [2] = test: Test A postemergence, kochia; details: Bassia scoparia, post-emergence, 240 h, postemergence, 0 to 100 scale, 0 is no effect, 100 is complete control, approximately 10 days, read-out: Plant response rating, Kochia; for pest or weed control at 125 g/ha: 125 g ai/ha
Method in brief: as §2

[3] = tested on: barnyardgrass (Echinochloa crus-galli); test: Test B flooded paddy test, barnyardgrass; details: Echinochloa crus-galli; 250 g ai/ha, Flood; visual rating after 13 to 15 days; scale 0 to 100, 0 is no effect, 100 is complete control; read-out: Plant response rating, Barnyardgrass
Method in brief: as §1

[4] = tested on: foxtail, giant (giant foxtail, Setaria faberii); test: Test A preemergence, giant foxtail; details: Setaria faberi, pre-emergence, 240 h, Preemergence, 0 to 100 scale (0 no effect, 100 complete control), read-out: Plant response rating, Foxtail, Giant; for pest or weed control at 125 g/ha: 125 g ai/ha
Method in brief: as §2

[5] = tested on: ragweed (common ragweed, Ambrosia elatior); test: Test A postemergence, ragweed; details: Ambrosia artemisiifolia, post-emergence, 240 h, postemergence, 0 to 100 scale, 0 is no effect, 100 is complete control, approximately 10 days, read-out: Plant response rating, Ragweed; for pest or weed control at 125 g/ha: 125 g ai/ha
Method in brief: as §2

[6] = tested on: ragweed (common ragweed, Ambrosia elatior); test: Test A preemergence, ragweed; details: Ambrosia artemisiifolia, pre-emergence, 240 h, Preemergence, 0 to 100 scale (0 no effect, 100 complete control), read-out: Plant response rating, Ragweed; for pest or weed control at 125 g/ha: 125 g ai/ha
Method in brief: as §2

kochia (Kochia scoparia) [7] = test: Test A preemergence, kochia; details: Bassia scoparia, pre-emergence, 240 h, Preemergence, 0 to 100 scale (0 no effect, 100 complete control), read-out: Plant response rating, Kochia; for pest or weed control at 125 g/ha: 125 g ai/ha
Method in brief: as §2

[8] = tested on: sedge, umbrella (small-flower umbrella sedge, Cyperus difformis); test: Test B flooded paddy test, umbrella sedge; details: Cyperus difformis; 250 g ai/ha, Flood; visual rating after 13 to 15 days; scale 0 to 100, 0 is no effect, 100 is complete control; read-out: Plant response rating, Sedge, Umbrella
Method in brief: as §1

[9] = tested on: galium (catchweed bedstraw, Galium aparine); test: Test A postemergence, galium; details: Galium, post-emergence, 240 h, postemergence, 0 to 100 scale, 0 is no effect, 100 is complete control, approximately 10 days, read-out: Plant response rating, Galium; for pest or weed control at 125 g/ha: 125 g ai/ha
Method in brief: as §2

[10] = tested on: ryegrass, Italian (Italian ryegrass, Lolium multiflorum); test: Test A preemergence, Italian ryegrass; details: Lolium multiflorum, pre-emergence, 240 h, Preemergence, 0 to 100 scale (0 no effect, 100 complete control), read-out: Plant response rating, Ryegrass, Italian; for pest or weed control at 125 g/ha: 125 g ai/ha
Method in brief: as §2

[11] = tested on: wheat (Triticum aestivum); test: Test A postemergence, wheat; details: Triticum aestivum, post-emergence, 240 h, postemergence, 0 to 100 scale, 0 is no effect, 100 is complete control, approximately 10 days, read-out: Plant response rating, Wheat; for plant injury at 125 g/ha: 125 g ai/ha
Method in brief: as §2

[12] = tested on: blackgrass (Alopecurus myosuroides); test: Test A postemergence, blackgrass; details: Alopecurus myosuroides, post-emergence, 240 h, postemergence, 0 to 100 scale, 0 is no effect, 100 is complete control, approximately 10 days, read-out: Plant response rating, Blackgrass; for pest or weed control at 125 g/ha: 125 g ai/ha
Method in brief: as §2

[13] = tested on: foxtail, giant (giant foxtail, Setaria faberii); test: Test A postemergence, giant foxtail; details: Setaria faberi, post-emergence, 240 h, postemergence, 0 to 100 scale, 0 is no effect, 100 is complete control, approximately 10 days, read-out: Plant response rating, Foxtail, Giant; for pest or weed control at 125 g/ha: 125 g ai/ha
Method in brief: as §2

| Structure (SMILES) | plant injury at 250 g/ha (rice (Oryza sativa)) [%] | pest or weed control at 125 g/ha [1] [%] | Corn plant response rating (crop injury, 0 = no effect, 100 = complete kill) at 125 g/ha (corn (Zea mays)) [%] | pest or weed control at 125 g/ha (kochia (Kochia scoparia) [2]) [%] | pest or weed control at 250 g/ha [3] [%] | pest or weed control at 125 g/ha [4] [%] | pest or weed control at 125 g/ha [5] [%] | pest or weed control at 125 g/ha [6] [%] | pest or weed control at 125 g/ha (kochia (Kochia scoparia) [7]) [%] | pest or weed control at 250 g/ha [8] [%] | pest or weed control at 125 g/ha [9] [%] | pest or weed control at 125 g/ha [10] [%] | plant injury at 125 g/ha [11] [%] | pest or weed control at 125 g/ha [12] [%] | pest or weed control at 125 g/ha [13] [%] | other results |
| --- | --- | --- | --- | --- | --- | --- | --- | --- | --- | --- | --- | --- | --- | --- | --- | --- |
| N#Cc1cccc(Oc2ncc(Cl)cn2)c1OCCC(F)(F)F [Compound 23, 3-[(5-chloro-2-pyrimidinyl)oxy]-2-(3,3,3-trifluoropropoxy)benzonitrile] | 30 | 90 | 90 | 100 | 50 | 100 | 30 | 90 | 100 | 100 | 90 | 30 | 70 | 70 | 90 | pest or weed control at 31 g/ha ([1]; 31 g ai/ha): 50%; Corn plant response rating (crop injury, 0 = no effect, 100 = complete kill) at 31 g/ha (corn (Zea mays); 31 g ai/ha): 10%; pest or weed control at 31 g/ha (kochia (Kochia scoparia) [2]; 31 g ai/ha): 90%; pest or weed control at 31 g/ha ([4]; 31 g ai/ha): 90%; pest or weed control at 31 g/ha ([5]; 31 g ai/ha): 0%; pest or weed control at 31 g/ha ([6]; 31 g ai/ha): 0%; pest or weed control at 31 g/ha (kochia (Kochia scoparia) [7]; 31 g ai/ha): 100%; pest or weed control at 31 g/ha ([9]; 31 g ai/ha): 60%; pest or weed control at 31 g/ha ([10]; 31 g ai/ha): 0%; plant injury at 31 g/ha ([11]; 31 g ai/ha): 20%; pest or weed control at 31 g/ha ([12]; 31 g ai/ha): 20%; pest or weed control at 31 g/ha ([13]; 31 g ai/ha): 20% |
| CCCCOc1c(Br)cccc1Oc1ncc(Cl)cn1 [Compound 13, 2-[3-bromo-2-(butoxy)phenoxy]-5-chloropyrimidine] | 20 | 90 | 30 | 100 | 0 | 100 | 0 | 0 | 80 | 95 | 90 | 10 | 20 | 50 | 90 | pest or weed control at 500 g/ha ([1]; 500 g ai/ha): 100%; Corn plant response rating (crop injury, 0 = no effect, 100 = complete kill) at 500 g/ha (corn (Zea mays); 500 g ai/ha): 90%; pest or weed control at 500 g/ha (kochia (Kochia scoparia) [2]; 500 g ai/ha): 100%; pest or weed control at 500 g/ha ([4]; 500 g ai/ha): 100%; pest or weed control at 500 g/ha ([5]; 500 g ai/ha): 10%; pest or weed control at 500 g/ha ([6]; 500 g ai/ha): 10%; pest or weed control at 500 g/ha (kochia (Kochia scoparia) [7]; 500 g ai/ha): 100%; pest or weed control at 500 g/ha ([9]; 500 g ai/ha): 100%; pest or weed control at 500 g/ha ([10]; 500 g ai/ha): 90%; plant injury at 500 g/ha ([11]; 500 g ai/ha): 40%; pest or weed control at 500 g/ha ([12]; 500 g ai/ha): 100%; pest or weed control at 500 g/ha ([13]; 500 g ai/ha): 100% |
